Test results taken from patent publication US10899759B2, “Positive allosteric modulators of the muscarinic acetylcholine receptor M1” (Vanderbilt University, priority 2016, dated 2021).

Experiments:
human mAChR M1 = target: T1, human mAChR M1 (Homo sapiens, UniProt P11229); test: mAChR M1 cell-based functional assay (calcium mobilization, Fluo-4, FDSS); details: CHO-K1 cells stably expressing hM1; for Emax: EC20 acetylcholine response, read-out: Human M1 Emax; for EC50: positive allosteric modulator activity as increase in the EC20 acetylcholine response
T1 construct: host or cells: CHO-K1
T1 sequence (P11229 1-460): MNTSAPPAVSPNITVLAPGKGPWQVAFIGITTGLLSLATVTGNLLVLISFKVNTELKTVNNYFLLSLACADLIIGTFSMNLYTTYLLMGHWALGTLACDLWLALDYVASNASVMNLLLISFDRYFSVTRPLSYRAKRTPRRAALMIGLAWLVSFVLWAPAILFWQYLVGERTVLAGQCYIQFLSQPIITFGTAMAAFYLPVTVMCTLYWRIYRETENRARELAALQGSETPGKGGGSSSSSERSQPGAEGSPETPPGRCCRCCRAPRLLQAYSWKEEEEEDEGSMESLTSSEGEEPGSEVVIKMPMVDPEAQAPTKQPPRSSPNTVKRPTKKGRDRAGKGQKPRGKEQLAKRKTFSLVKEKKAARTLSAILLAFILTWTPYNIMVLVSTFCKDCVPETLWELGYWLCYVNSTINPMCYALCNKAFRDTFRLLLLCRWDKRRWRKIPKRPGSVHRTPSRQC
Method in brief: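 CHO-K1 cells stably expressing muscarinic receptor, loaded with Fluo-4; 11-point 1:3 compound series added and calcium flux read over 300 s at 1 Hz. Agonism from direct calcium rise, PAM activity as potentiation of EC20 acetylcholine, antagonism as decrease of EC80 acetylcholine; four-parameter logistic fits.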

[1] = Brain tissue distribution study in Sprague-Dawley rat (IV cassette); type: in vivo; details: male, IV cassette 0.2 mg/kg per compound, 0.25 h post-dose; for Kp uu at 0.25 h: brain/plasma (unbound), unbound distribution partition coefficient; for Kp at 0.25 h: brain/plasma, distribution partition coefficient
Experimental: The plasma protein and nonspecific brain homogenate binding of certain compounds were determined in plasma or brain homogenate using contemporary equilibrium dialysis and employing HTDialysis™ Teflon dialysis chambers and cellulose membranes (MWCO 12-14 K) from HTDialysis (Gales Ferry, Conn.). Brain tissue homogenate was prepared by diluting one volume whole brain tissue with three volumes of phosphate buffer (pH 7.4). The mixture was then subjected to mechanical homogenation employing a Mini-Beadbeater™ and 1.0 mm Zirconia/Silica Beads from BioSpec Products (Bartlesville, Okla.). Plasma or brain homogenate was fortified with test article and mixed thoroughly for a final concentration of 5 μM for plasma and 1 μM for brain homogenate. Subsequently, 100 μL of the plasma- or brain homogenate-compound mixture was transferred to one side of a dialysis chamber with an accompanying 100 μL of phosphate buffer (pH 7.4) in the opposite side of the chamber. The plate block was sealed and incubated for 6 hours (37° C.) with shaking. Upon completion, aliquots from each chamber were matrix-matched with either plasma or brain homogenate (1:1, buffer side) or buffer (1:1, plasma or brain homogenate side) in a new 96-well plate, at which time the proteins and cell debris/membranes (for brain homogenate) were precipitated with ice-cold acetonitrile containing an internal standard (carbamazepine, 50 nM). The plate was centrifuged (3000 rcf, 10 min) and supernatants diluted (1:1, v/v) via transfer into a fresh 96-well plate containing deionized H2O; the plate was sealed in preparation for LC/MS/MS bioanalysis. The assay was performed in triplicate for each compound.
A cassette of compounds (n=5/cassette) were formulated from 10 mmol L^−1 solutions prepared in DMSO. In order to reduce the absolute volume of DMSO that was administered, the compounds were combined and diluted with ethanol and PEG 400 to achieve a final concentration of 0.4 mg mL^−1 for each compound (2 mg mL^−1 total) administered in each cassette; the maximal dosing volume was 0.5 mL kg^−1 of each animal's body mass. The final dosing solutions consisted of approximately 10% ethanol, 40% PEG400, and 50% DMSO (v/v). Each cassette dose was administered IV via the jugular vein to one dual-cannulated (carotid artery and jugular vein) adult male Sprague-Dawley rat, each weighing between 250 and 350 g (Harlan, Indianapolis, Ind.) for a final dose of 0.2 mg kg^−1 per compound. Whole blood and dissected whole brains were collected at the time of euthanization (0.25 h post-dose), with the whole brain being removed and thoroughly rinsed with cold phosphate-buffered saline prior to freezing on dry ice. […]

C57Bl/6 mice = test: Behavioral manifestations of seizure activity (modified Racine scoring); type: in vivo; details: 100 mg/kg i.p., monitored up to 3 hr for seizure behavior
Experimental: To evaluate induction of behavioral manifestation of seizure activity, C57Bl/6 mice received administration of vehicle or 100 mg/kg M1 PAM. Compounds were formulated in 10% Tween 80 (pH 7.0) at a concentration of 10 mg/ml and injected i.p. (n=3). Animals were monitored continuously and scored for behavioral manifestations of seizure activity at 5, 10, 15 and 30 min, and 1 and 3 hr. Behavioral manifestations of seizures were scored using a modified Racine scoring system (R. J. Racine, Modification of seizure activity by electrical stimulation. II. Motor seizure. Electroencephalogr. Clin. Neurophysiol. 32, 281 (March, 1972)). Briefly, a score of 0 represents no behavior alterations; score 1, immobility, mouth and facial movements, or facial clonus; score 2, head nodding, tail extension; score 3, forelimb clonus, repetitive movements; score 4, rearing and tonic clonic seizure; and score 5, continuous rearing and falling, severe generalized tonic clonic seizure.

Row | SMILES | Emax (human mAChR M1) [%] | EC50 (human mAChR M1) [nM] | Kp uu at 0.25 h [1] | Kp at 0.25 h [1] | Adverse Effect in mice (100 mpk, i.p.) (C57Bl/6 mice)
1 | Cc1nc(-c2ccc(Cc3cc(C(=O)NC4CCOCC4)nc4c3ccn4C)cc2)co1 [Compound 53, 1-methyl-4-[[4-(2-methyloxazol-4-yl)phenyl]methyl]-N-tetrahydropyran-4-yl-pyrrolo[2,3-b]pyridine-6-carboxamide] | 86.4 | 390 | 0.85 | 0.51 | No
2 | Cn1cc(-c2ccc(Cc3cc(C(=O)NC4CCOCC4)nc4c3ccn4C)cn2)cn1 [Compound 47, 1-methyl-4-[[6-(1-methylpyrazol-4-yl)-3-pyridyl]methyl]-N-tetrahydropyran-4-yl-pyrrolo[2,3-b]pyridine-6-carboxamide] | 83.8 | 180 | 0.32 | 0.28 | No
